Measured values as given in patent US9867805B2, “Gelatinase inhibitors and prodrugs” (priority 2010, dated 2018).
In brackets after ≈: the same amount, converted by molar mass. Structures can show the parent of a compound that is named as a salt. Where two headings read alike, the source gives them in different places.

Columns and labels:
[1] = Half-life in rat liver microsomes
[2] = Half-life in mouse liver microsomes
[3] = Half-life in human liver microsomes
[4] = molecular target: T1, human MMP-2 (Homo sapiens, UniProt P08253); settings: read-out: Ki, MMP-2
T1 sequence (P08253 110-660): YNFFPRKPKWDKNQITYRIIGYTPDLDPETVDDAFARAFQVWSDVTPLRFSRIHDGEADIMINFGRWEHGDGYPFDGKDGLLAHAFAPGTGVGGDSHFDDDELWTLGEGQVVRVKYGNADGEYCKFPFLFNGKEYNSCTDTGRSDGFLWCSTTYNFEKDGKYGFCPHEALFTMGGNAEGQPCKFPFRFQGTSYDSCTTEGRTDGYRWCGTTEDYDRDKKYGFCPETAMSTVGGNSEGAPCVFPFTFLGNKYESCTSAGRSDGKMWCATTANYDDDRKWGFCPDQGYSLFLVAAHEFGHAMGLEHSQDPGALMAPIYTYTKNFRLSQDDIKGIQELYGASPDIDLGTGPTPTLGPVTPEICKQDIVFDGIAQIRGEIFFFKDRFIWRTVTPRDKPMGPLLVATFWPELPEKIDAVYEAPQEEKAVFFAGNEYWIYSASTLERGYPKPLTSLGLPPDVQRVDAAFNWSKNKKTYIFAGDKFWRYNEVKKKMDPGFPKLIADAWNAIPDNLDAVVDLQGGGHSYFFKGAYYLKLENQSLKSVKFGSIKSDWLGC

[5] = molecular target: T2, human MMP-9 (Homo sapiens, UniProt P14780); settings: read-out: Ki, MMP-9
T2 sequence (P14780 107-707 limits assumed): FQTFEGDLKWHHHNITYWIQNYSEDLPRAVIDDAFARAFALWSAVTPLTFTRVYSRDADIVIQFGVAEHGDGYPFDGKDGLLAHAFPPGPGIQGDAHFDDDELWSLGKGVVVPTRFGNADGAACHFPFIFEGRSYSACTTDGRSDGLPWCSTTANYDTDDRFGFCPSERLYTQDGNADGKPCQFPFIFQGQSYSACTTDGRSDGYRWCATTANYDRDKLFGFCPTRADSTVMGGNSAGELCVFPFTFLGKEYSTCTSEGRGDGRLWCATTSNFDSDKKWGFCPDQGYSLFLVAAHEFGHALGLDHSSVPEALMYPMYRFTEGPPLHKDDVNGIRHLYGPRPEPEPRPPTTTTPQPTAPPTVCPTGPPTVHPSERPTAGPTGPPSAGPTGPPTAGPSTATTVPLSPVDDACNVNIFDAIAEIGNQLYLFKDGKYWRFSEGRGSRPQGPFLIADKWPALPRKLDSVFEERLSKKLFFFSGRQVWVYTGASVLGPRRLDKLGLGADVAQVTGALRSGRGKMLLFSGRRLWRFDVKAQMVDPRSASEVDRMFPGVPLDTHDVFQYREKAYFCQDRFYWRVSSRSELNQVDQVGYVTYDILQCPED

[6] = molecular target: T1, human MMP-2; test: biochemical; settings: for koff: read-out: koff, MMP-2; for kon: read-out: kon, MMP-2
[7] = molecular target: T2, human MMP-9; test: biochemical; settings: for koff: read-out: koff, MMP-9; for kon: read-out: kon, MMP-9
[8] = Half-life in human blood at 37° C.; settings: for half-life: human, blood
[9] = Half-life in human plasma at 37° C.; settings: for half-life: human, plasma
[10] = Water solubility
[11] = tested on: Ames II mixed strains and strain TA98; test: Ames mutagenicity assay (reverse mutations); settings: with and without rat liver S9 metabolic activation; six concentrations up to 1 mg/mL
[12] = molecular target: T3, MMP-7 (Homo sapiens, UniProt P09237); settings: read-out: Ki, MMP-7
T3 sequence (P09237 95-267): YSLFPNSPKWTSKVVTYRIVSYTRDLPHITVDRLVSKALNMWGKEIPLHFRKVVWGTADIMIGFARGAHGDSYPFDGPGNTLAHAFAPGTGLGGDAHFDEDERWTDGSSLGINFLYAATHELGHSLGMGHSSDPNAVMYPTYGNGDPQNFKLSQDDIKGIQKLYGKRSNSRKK

[13] = molecular target: T4, MMP-14 (Homo sapiens, UniProt P50281); settings: read-out: Ki, MMP-14
[14] = molecular target: T5, MMP-1 (Homo sapiens, UniProt P03956); test: biochemical; settings: read-out: inhibition of MMP-1
T5 sequence (P03956 100-469): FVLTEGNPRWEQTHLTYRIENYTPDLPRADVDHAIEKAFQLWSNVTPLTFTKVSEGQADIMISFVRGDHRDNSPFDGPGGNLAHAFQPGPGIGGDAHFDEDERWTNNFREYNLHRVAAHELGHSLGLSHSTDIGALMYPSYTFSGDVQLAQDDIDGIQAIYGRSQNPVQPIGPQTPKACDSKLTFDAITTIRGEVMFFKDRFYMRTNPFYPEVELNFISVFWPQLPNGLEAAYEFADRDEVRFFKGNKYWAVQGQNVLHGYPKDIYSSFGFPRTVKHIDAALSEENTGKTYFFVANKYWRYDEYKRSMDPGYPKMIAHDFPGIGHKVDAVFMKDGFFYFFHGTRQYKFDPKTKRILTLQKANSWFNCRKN

[15] = molecular target: MMP-3 (Homo sapiens, UniProt P08254); test: biochemical; settings: read-out: inhibition of MMP-3
MMP-3, sequence (P08254 100-477): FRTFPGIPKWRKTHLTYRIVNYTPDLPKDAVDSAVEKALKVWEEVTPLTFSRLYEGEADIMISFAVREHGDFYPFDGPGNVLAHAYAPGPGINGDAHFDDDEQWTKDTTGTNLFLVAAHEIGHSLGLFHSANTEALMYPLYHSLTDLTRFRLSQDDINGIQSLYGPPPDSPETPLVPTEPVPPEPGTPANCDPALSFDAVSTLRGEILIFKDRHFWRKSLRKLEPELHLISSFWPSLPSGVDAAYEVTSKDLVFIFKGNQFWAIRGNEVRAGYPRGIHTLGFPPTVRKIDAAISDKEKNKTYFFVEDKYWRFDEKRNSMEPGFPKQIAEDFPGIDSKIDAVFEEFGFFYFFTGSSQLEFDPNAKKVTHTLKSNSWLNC

[16] = molecular target: T4, MMP-14; test: biochemical
[17] = cited from earlier work
[18] = mice; cited from earlier work
[19] = rat; cited from earlier work
[20] = molecular target: other MMPs; settings: background, earlier reports; cited from earlier work
[21] = molecular target: T1, human MMP-2; settings: read-out: Ki for human MMP-2; background, earlier reports; cited from earlier work
[22] = molecular target: T2, human MMP-9; settings: read-out: Ki for human MMP-9; background, earlier reports; cited from earlier work

Nc1ccc(Oc2ccc(S(=O)(=O)CC3CS3)cc2)cc1 (stereo not shown) [Compound 6, 4-[4-((Thiiran-2-yl)methylsulfonyl)phenoxy]benzamine.HCl salt]
Half-life in liver microsomes, Rat [1]: 23.4 ± 0.7 min | Half-life in liver microsomes, Mouse [2]: 27.3 ± 2.1 min | Half-life in liver microsomes, Human [3]: >60 min

NCC(=O)Nc1ccc(Oc2ccc(S(=O)(=O)CC3CS3)cc2)cc1 (stereo not shown) [Compound 11a]
Ki [4]: 0.44 ± 0.05 µM | Ki [5]: 3.1 ± 0.3 µM | koff [6]: 0.00082 ± 9e-05 s⁻¹ | kon [6]: 1900 ± 600 M⁻¹ s⁻¹ | koff [7]: 0.00065 ± 6e-05 s⁻¹ | kon [7]: 210 ± 40 M⁻¹ s⁻¹ | Half-life in human blood at 37° C. ([8]; human blood, 37° C.): 27.1 ± 2.5 min | Half-life in human plasma at 37° C. ([9]; human plasma, 37° C.): 32.4 ± 2.7 min

NCCCCC(N)C(=O)Nc1ccc(Oc2ccc(S(=O)(=O)CC3CS3)cc2)cc1 (stereo not shown) [Compound 11b]
koff [6]: 0.00021 ± 9e-05 s⁻¹ | kon [6]: 3400 ± 100 M⁻¹ s⁻¹ | koff [7]: 0.00042 ± 7e-05 s⁻¹ | kon [7]: 270 ± 40 M⁻¹ s⁻¹ | solubility ([10]; water, Water Solubility): > 10000 µg/mL | half-life [8]: 15.3 ± 1.9 min | half-life [9]: 25.1 ± 5.2 min

NC(CCC(=O)O)C(=O)Nc1ccc(Oc2ccc(S(=O)(=O)CC3CS3)cc2)cc1 (stereo not shown) [Compound 11c]
koff [6]: 0.00018 ± 0.00016 s⁻¹ | kon [6]: 2500 ± 100 M⁻¹ s⁻¹ | Ki [7]: 5.4 ± 0.3 µM | koff [7]: 0.0012 ± 7e-05 s⁻¹ | kon [7]: 2300 ± 100 M⁻¹ s⁻¹ | solubility ([10]; water, Water Solubility): > 10000 µg/mL | half-life [8]: 27.9 ± 3.8 min | half-life [9]: 32.8 ± 3.6 min

N=C(N)NCCCC(N)C(=O)Nc1ccc(Oc2ccc(S(=O)(=O)CC3CS3)cc2)cc1 (stereo not shown) [Compound 11d]
solubility ([10]; water, Water Solubility): > 10000 µg/mL | half-life [1]: 59.3 ± 4.5 min | half-life [8]: 25.4 ± 0.1 min | half-life [9]: 29.5 ± 0.7 min | half-life [2]: > 60 min | half-life [3]: > 60 min | mutagenic potential (Ames mutagenicity assay) [11]: negative

N=C(N)NCCCC(N)C(=O)NC(CCCNC(=N)N)C(=O)Nc1ccc(Oc2ccc(S(=O)(=O)CC3CS3)cc2)cc1 (stereo not shown) [Compound 11e]
solubility ([10]; water, Water Solubility): > 10000 µg/mL | half-life [8]: 5.9 ± 0.6 min | half-life [9]: 11.8 ± 0.5 min

Cc1oc(=O)oc1COC(=O)Nc1ccc(Oc2ccc(S(=O)(=O)CC3CS3)cc2)cc1 (stereo not shown) [Compound 14]
Ki [6]: 2.4 ± 0.6 µM | inhibition at 80 µM ([7]; read-out: inhibition of MMP-9): 37% | solubility ([10]; Water Solubility, in 100% water, solubility calculated using ε of MIK-G6 (p-N-acetyl SB-3CT)): 1.01 µg/mL (≈ 0.00212 mM) | half-life [9]: 1.6 ± 0.4 min

Nc1ccc(Oc2ccc(S(=O)(=O)CC3CS3)cc2)cc1O (stereo not shown) [Compound 22, 2-Amino-5-(4-((thiiran-2-ylmethyl)sulfonyl)phenoxy)phenol]
Ki [4]: 0.078 ± 0.043 µM | Ki [5]: 0.49 ± 0.11 µM | Ki [12]: 116 ± 13 µM | Ki [13]: 0.26 ± 0.07 µM | koff [6]: 0.00014 ± 7e-05 s⁻¹ | kon [6]: 1700 ± 100 M⁻¹ s⁻¹ | koff [7]: 0.00053 ± 0.0001 s⁻¹ | kon [7]: 1070 ± 120 M⁻¹ s⁻¹ | inhibition at 300 µM [14]: 11% | inhibition at 300 µM [15]: 54% | koff ([16]; read-out: koff, MMP-14): 0.000702 ± 0.000161 s⁻¹ | kon ([16]; read-out: kon, MMP-14): 2690 ± 270 M⁻¹ s⁻¹

O=S(=O)(CC1CS1)c1ccc(Oc2ccccc2)cc1 (stereo not shown) [SB-3CT]
histological damage ([17]; administration at 6 hours after ischemia): potently blocked | infarct volume ([17]; mouse transient ischemia): 30 % of control | neurobehavioral scores ([17]; mouse transient ischemia): significantly improved | treatment of viral-induced vascular leakage [18]: effective | treatment in model of subarachnoid hemorrhage [19]: effective | Ki values for other MMPs [20]: in the μM range at best | solubility ([10]; water, aqueous solubility): ~2.45 µg/mL (≈ 0.008 mM)

O=S(=O)(CC1CS1)c1ccc(Oc2ccc(O)cc2)cc1 (stereo not shown) [p-hydroxylated metabolite]
Ki [21]: 0.006 ± 0.003 µM | Ki [22]: 0.16 ± 0.08 µM
